Measurements reported in PMC4955146, “Virtual screening and experimental validation of novel histone deacetylase inhibitors” (BMC Pharmacology & Toxicology, 2016).

System: HDACs in HeLa nuclear extracts
Test: HDAC inhibitory activity assay (fluorometric HDAC inhibitor drug screening kit)
Format: biochemical
Conditions: percentage of the positive control, inhibitor control at 20 μM
Experimental: The HDAC inhibitor drug screening kit (k340-100, BioVision, CA, USA) was used to measure HDAC inhibitory activities of the candidate compounds according to the manufacturer’s instructions. The candidate compounds, assay buffer, and HDAC fluorometric substrate, which comprises an acetylated lysine side chain, were added to HeLa nuclear extracts in a 96-well plate and incubated at 37 °C for 30 min. The reaction was stopped by adding lysine developer, and the mixture was incubated for another 30 min at 37 °C. An additional positive control included incubation with double-distilled water, and the inhibitor control consisted of incubation with Trichostatin A (TSA) at 20 μM. HDAC activities were quantified by a fluorescence plate reader (POLARstar OPTIMA, BMG, BRD) with excitation at 370 nm and emission at 450 nm.

Trichostatin A [TSA]
relative enzymatic activity: 12%
